“Also recorded” adds a separate entry of the source. One block for each compound: values may come before it.
Legend:
HCT-116 p53−/− cells = test: γH2AX foci staining for induction of DNA damage (genomic toxicity); assay type: cell-based, human; conditions: YMU1 2 μM 2 days; FdUrd 2 μM 1 day
Excerpt: FIG. 14. Effect of YMU1 on genomic toxicity and DNA repair. […] After overnight, cells were exposed to doxorubicin and recovered. […]
TMPK and TS are key enzymes in dTTP synthesis and TS has been a major chemotherapy target (Garg et al., 2010). Inhibition of TS by FdUrd causes genome toxicity (Longley et al., 2003). Given the shared role of TMPK and TS in dTTP synthesis, we next compared the effects of blocking TMPK and TS by either shRNA interference or inhibitor treatment on the induction of DNA damage.
For γH2AX, Rad51 and XRCC1 staining, cells were fixed with 4% paraformaldehyde for 30 min at room temperature and were incubated with TBS (50 mM Tris-HCl, pH 7.4, 150 mM NaCl) plus 0.3% Triton X-100 for 5 min. The coverslips were blocked with MAXblock™ (Active Motif) for 1 h at 37° C., followed by staining with primary antibodies: anti-γH2AX monoclonal antibody (1:1000), anti-Rad51 polyclonal antibody (1:500) or anti-XRCC1 monoclonal antibody (1:500) overnight at 4° C. After extensive washing, cells were stained with secondary antibodies and Hoechst 33342 for 1 h at room temperature. After mounting, cells were analyzed and photographed with a Carl Zeiss fluorescence microscope equipped with AxioCam digital camera and Axio Vision Rel. 4.8 imaging software.

[1] = test system: H184B5F5/M10, MCF-10A, MCF-7 and HCT-116 p53−/− cells; test: Colony assay of cell viability, YMU1 versus FdUrd; conditions: various concentrations thrice a week, 14 days
Description: (B) H184B5F5/M10 cells were seeded onto 100 mm-dish at 5,000 cells/dish. MCF-10A, MCF-7 and HCT-116 p53^−/− cells were seeded onto 6 well plate at 600 cells/well. Following overnight culture, cells were treated with various concentration of YMU1 or FdUrd thrice a week. After 14 days colonies were fixed, stained by crystal violet.
We also compared the effect of YMU1 and FdUrd on cell viability of non-tumorigenic mammary cycling cells, H184B5F5/M10 and MCF-10A and tumor lines, MCF-7 and HCT-116 p53^−/− cells.
After 14 days, colonies were fixed and stained by crystal violet and counted.

panel of cell lines = test: Doxorubicin sensitization, MTS viability assay, summary over the panel of cell lines; assay type: cell-based, human; conditions: all these cell lines; 72 h pre-treatment
Description: (§1) FIG. 16. In vitro and in vivo effect of YMU1 on doxorubicin sensitization. (A) A panel of cell lines were pre-treated with vehicle, YMU1 (compound 21), D6 (ethyl 4-(2-chloroacetyl)piperazine-1-carboxylate) or D7 (compound 28) for 3 days and were exposed to different concentration of doxorubicin for 4 h. […] The enhancement (fold) of doxorubicin sensitivity in each cell line was calculated. Data represent mean±s.d., n=3; each experiment was quadruplex. Inset indicates the IC50 value of doxorubicin in various cell lines. […] Following overnight culture, cells were refreshed with growth medium. After 14 days of culture, colonies were fixed, stained by crystal violet and counted. (C) HCT-116 p53^−/− cells were subcutaneously implanted in the right flank of Balb/c nude mice (each experimental group n=8). Arrow indicated the time of stopping drug treatment. The tumor volume was estimated as described in Methods of the Invention section. (D) After 2 weeks recovered from treatment, mice were sacrificed for tumor weight measurement. Data represent mean±s.e.m; **, P<0.01 by a two-tailed Student's t-test. (E) Ki 67 proliferation marker staining of tumor shown in left panel. Scale bar, 50 μm. (F) Model of doxorubicin sensitization by YMU1 in malignant cancer cells. Both R2/R1 and TMPK are recruited to the site of doxorubicin-induced double-strand breaks, where dATP, dGTP, dCTP, dTTP and dUTP are site-specific synthesized. Inhibition of TMPK decreases dTTP formation at DNA damage sites, causing futile DNA repair due to dUTP incorporation.
(§2) Next, various human cancer cell lines were treated with YMU1, D6 or D7 for 72 h to test the potential of TMPK inhibitor in doxorubicin sensitization. After exposure to different concentration of doxorubicin for 4 h, cells were refreshed for viability analysis after 2 days and the IC50 value for doxorubicin in each of the cell lines was determined (FIG. 16A and Table 2).
The ability of YMU1 to sensitize non-tumorigenic mammary cycling H184B5F5/M10, MCF10A, primary human mammary epithelial (HMEC) and primary renal epithelial (HREC) cells and IMR-90 embryonic lung fibroblasts to doxorubicin was much weaker.
(§3) Cells plated into a 96-well plate (10^3 cells/well) were treated and cell viability was measured by MTS assay (Promega) (Cory et al., 1991). An annexin V-fluorescein isothiocyanate (FITC) apoptosis kit (Calbiochem) was used to detect apoptosis. The cell cycle analysis was performed by staining cells with propidium iodide (PI) for fluorescence-activated cell sorter (FACS) analysis with CellQuest software.

TMPK [2] = molecular target: T1, TMPK (Homo sapiens, UniProt P23919); test: Luciferase-coupled TMPK assay; assay type: biochemical; parameters: GST (N, cleaved yes); made in house; host or cells: E. coli JM109 (pGEX-2T-hTMPK); conditions: purified hTMPK protein (0.5 μg), 10 min preincubation; listed as D7
T1 sequence (P23919 1-212): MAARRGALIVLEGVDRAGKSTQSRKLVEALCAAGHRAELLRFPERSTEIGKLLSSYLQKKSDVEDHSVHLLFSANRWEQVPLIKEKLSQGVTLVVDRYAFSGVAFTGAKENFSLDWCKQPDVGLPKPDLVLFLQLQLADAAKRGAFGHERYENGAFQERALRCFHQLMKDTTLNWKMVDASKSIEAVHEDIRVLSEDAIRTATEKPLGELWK
Description: FIG. 12. Identification of a novel hTMPK inhibitor. (A) A screen of TMPK inhibitor by luciferase-coupled assay. (B) The chemical structures of YMU1 (compound 21) and related molecules. (C) Effect of YMU1 and derivative compounds on hTMPK inhibition using purified hTMPK protein (0.5 μg) with 10 min preincubation prior to reaction using luciferase-coupled TMPK analysis. (D) Effect of YMU1 on activity of purified TMPK (0.5 μg) and GST-hTK1 protein (5 μg) with 10 min preincubation prior to reaction. Data represent mean±s.d. (n=4) (E) Molecular models of the TMPK-YMU1 complex. Left panel: TMPK/ATP/Mg+2; right panel: TMPK/YMU1. The TMPK is represented in surface electrostatic potential (upper) and structural ribbon (lower). ATP and YMU1 are shown in green and blue stick, respectively, with colored atom (O, red; S, yellow; P, orange). TMP is shown in white backbone and Mg+2 in purple. Arrow indicates the position of Asp15.
Based on the functional requirement of TMPK in DNA repair specifically in tumor cells with elevated level of R2 expression, we searched for inhibitors of hTMPK that might be useful in selectively sensitizing tumor cells to doxorubicin. […] The synthetic procedure and structural elucidation of YMU1 (compound 21) are described in the Methods of the Invention section of the application.
The TMPK reaction was started by adding purified hTMPK in 50 μl of TMPK assay buffer (100 mM Tris-HCl, pH 7.5, 100 mM KCl, 10 mM MgCl2, 50 μM ATP and 100 μM dTMP) in 96 wells plate at 25° C. for 10 min and terminated by adding 200 μl of DTNB (100 μM), followed by transferring 10 μl of reaction solution to a white 96-wellplate containing 90 μl of luciferase assay buffer (50 mM Glycine, 0.5 mM EDTA and 5 mM EDTA, pH 7.0, 0.1 μg of luciferase, 50 μM luciferin and 0.1% BSA). The luminescence was measured with a luminescence counter (Packard).

TMPK [3] = molecular target: T1, TMPK; test: In vitro TMPK inhibitory activity of TMPK inhibitor derivatives (inhibition yield); assay type: biochemical; parameters: GST (N, cleaved yes); made in house; host or cells: E. coli JM109 (pGEX-2T-hTMPK), inferred; conditions: 2 μM; n=3 or 6; read-out: inhibition yield, normalized to compound 21 (YMU1) = 100%
Excerpt: Chemical structures of the different TMPK inhibitor derivatives tested for in vitro TMPK inhibitory activity and in vivo doxorubicin sensitization activity (in MDA-MB231 cells) are depicted below.

CL-1-0 = test: Doxorubicin sensitization, MTS viability assay; assay type: cell-based, human; conditions: Homo sapiens, CL1-0, vehicle 72 h, doxorubicin 4 h, viability after 2 days, read-out: IC50 of doxorubicin treatment, Vehicle
Description: as §1, §2, §3

Capan1 = test: Doxorubicin sensitization, MTS viability assay; assay type: cell-based, human; conditions: Homo sapiens, CAPAN-1, vehicle 72 h, doxorubicin 4 h, viability after 2 days, read-out: IC50 of doxorubicin treatment, Vehicle
Description: as §1, §2, §3

H1299 = test: Doxorubicin sensitization, MTS viability assay; assay type: cell-based, human; conditions: Homo sapiens, NCI-H1299, vehicle 72 h, doxorubicin 4 h, viability after 2 days, read-out: IC50 of doxorubicin treatment, Vehicle
Description: as §1, §2, §3

H184B5F5/M10 = test: Doxorubicin sensitization, MTS viability assay; assay type: cell-based, human; conditions: Homo sapiens, vehicle 72 h, doxorubicin 4 h, viability after 2 days, read-out: IC50 of doxorubicin treatment, Vehicle
Description: as §1, §2, §3

HCC1037 = test: Doxorubicin sensitization, MTS viability assay; assay type: cell-based, human; conditions: Homo sapiens, vehicle 72 h, doxorubicin 4 h, viability after 2 days, read-out: IC50 of doxorubicin treatment, Vehicle
Description: as §1, §2, §3

HCT-116p53+/+ = test: Doxorubicin sensitization, MTS viability assay; assay type: cell-based, human; conditions: Homo sapiens, vehicle 72 h, doxorubicin 4 h, viability after 2 days, read-out: IC50 of doxorubicin treatment, Vehicle
Description: as §1, §2, §3

HCT-116p53−/− = test: Doxorubicin sensitization, MTS viability assay; assay type: cell-based, human; conditions: Homo sapiens, vehicle 72 h, doxorubicin 4 h, viability after 2 days, read-out: IC50 of doxorubicin treatment, Vehicle
Description: as §1, §2, §3

HMEC = test: Doxorubicin sensitization, MTS viability assay; assay type: cell-based, human; conditions: Homo sapiens, vehicle 72 h, doxorubicin 4 h, viability after 2 days, read-out: IC50 of doxorubicin treatment, Vehicle
Description: as §1, §2, §3

HREC = test: Doxorubicin sensitization, MTS viability assay; assay type: cell-based, human; conditions: Homo sapiens, vehicle 72 h, doxorubicin 4 h, viability after 2 days, read-out: IC50 of doxorubicin treatment, Vehicle
Description: as §1, §2, §3

HT-29 = test: Doxorubicin sensitization, MTS viability assay; assay type: cell-based, human; conditions: Homo sapiens, vehicle 72 h, doxorubicin 4 h, viability after 2 days, read-out: IC50 of doxorubicin treatment, Vehicle
Description: as §1, §2, §3

IMR-90 = test: Doxorubicin sensitization, MTS viability assay; assay type: cell-based, human; conditions: Homo sapiens, vehicle 72 h, doxorubicin 4 h, viability after 2 days, read-out: IC50 of doxorubicin treatment, Vehicle
Description: as §1, §2, §3

MCF-10A = test: Doxorubicin sensitization, MTS viability assay; assay type: cell-based, human; conditions: Homo sapiens, vehicle 72 h, doxorubicin 4 h, viability after 2 days, read-out: IC50 of doxorubicin treatment, Vehicle
Description: as §1, §2, §3

MDA-MB468 = test: Doxorubicin sensitization, MTS viability assay; assay type: cell-based, human; conditions: Homo sapiens, MDA-MB-468, vehicle 72 h, doxorubicin 4 h, viability after 2 days, read-out: IC50 of doxorubicin treatment, Vehicle
Description: as §1, §2, §3

SaoS2 = test: Doxorubicin sensitization, MTS viability assay; assay type: cell-based, human; conditions: Homo sapiens, SAOS-2, vehicle 72 h, doxorubicin 4 h, viability after 2 days, read-out: IC50 of doxorubicin treatment, Vehicle
Description: as §1, §2, §3

U2OS = test: Doxorubicin sensitization, MTS viability assay; assay type: cell-based, human; conditions: Homo sapiens, vehicle 72 h, doxorubicin 4 h, viability after 2 days, read-out: IC50 of doxorubicin treatment, Vehicle
Description: as §1, §2, §3

Compound: O=c1[nH]c(=O)n([C@H]2C[C@H](O)[C@@H](CO)O2)cc1F [FdUrd, 5-fluoro-2′deoxyuridine]
- induction of DNA damage (γH2AX staining) (HCT-116 p53−/− cells): induced severe DNA damage
- death of cells in colony assay [1]: caused death of these cells

- melting point: 88 to 90 °C
- inhibition at 2 µM (TMPK [3]): 14.7%
Compound: CCOC(=O)N1CCN(C(=O)COc2nsc3nc(C)cc(C)c23)CC1 [compound 28, Ethyl 4-(2-(4,6-dimethylisothiazolo[5,4-b]pyridin-3-yloxy)acetyl)piperazine-1-carboxylate]
- doxorubicin sensitization effect (panel of cell lines): had no doxorubicin sensitization effect
- inhibition against hTMPK (TMPK [2]): Neither D6 (as the piperazine fragment of YMU1) nor D7 (as the O-alkylation isomer of YMU1) showed any inhibition; also recorded: do not inhibit TMPK

Compound: COc1cccc2c1C(=O)c1c(O)c3c(c(O)c1C2=O)C[C@@](O)(C(=O)CO)C[C@@H]3O[C@H]1C[C@H](N)[C@H](O)[C@H](C)O1 [doxorubicin, reference compound]
- IC50 (CL-1-0): 4.9 ± 0.2 µM
- IC50 (Capan1): 1.13 ± 0.02 µM
- IC50 (H1299): 7.19 ± 0.77 µM
- IC50 (H184B5F5/M10): 4.15 ± 0.06 µM
- IC50 (HCC1037): 5.52 ± 0.39 µM
- IC50 (HCT-116p53+/+): 2.66 ± 0.49 µM
- IC50 (HCT-116p53−/−): 4.1 ± 0.01 µM
- IC50 (HMEC): 23.6 ± 1.23 µM
- IC50 (HREC): 22.1 ± 1.18 µM
- IC50 (HT-29): 12.1 ± 1.64 µM
- IC50 (IMR-90): 14.2 ± 3.21 µM
- IC50 (MCF-10A): 5.22 ± 0.39 µM
- IC50 (MDA-MB468): 0.25 ± 0.08 µM
- IC50 (SaoS2): 7.83 ± 0.02 µM
- IC50 (U2OS): 4.58 ± 0.14 µM

Reference: US9278982B2, “Targeting human thymidylate kinase induces DNA repair toxicity in malignant tumor cells” (NATIONAL YANG-MING UNIVERSITY, priority 2010, dated 2016)
